# According to publication PMC12452633 (RSC Medicinal Chemistry, 2025):
# Legend:
# Ku70–Ku80 = Ku70–Ku80 (Homo sapiens, UniProt P12956+P13010); assay: nano Differential Scanning Fluorometry; format: binding; conditions: 0 to 25 μM ligand
# Ku70/80 protein = conditions: gel-based TSA; cited from earlier work
# p53 phosphorylation = conditions: through p53 phosphorylation, ATM pathway activation; cited from earlier work
# NHEJ = conditions: earlier report; cited from earlier work
# Ku70/80 = Ku70/80 (Homo sapiens, UniProt P12956+P13010); assay: Ku–DNA binding EMSA; conditions: Ku70/80 (IC50), purified Ku70/80, direct DNA binding activity by EMSA
# DNA-PK = DNA-PK (Homo sapiens, UniProt P12956+P13010); assay: DNA-PK phosphoryl-transferase catalytic; format: biochemical
# Sequence of DNA-PK (P12956 whole entry): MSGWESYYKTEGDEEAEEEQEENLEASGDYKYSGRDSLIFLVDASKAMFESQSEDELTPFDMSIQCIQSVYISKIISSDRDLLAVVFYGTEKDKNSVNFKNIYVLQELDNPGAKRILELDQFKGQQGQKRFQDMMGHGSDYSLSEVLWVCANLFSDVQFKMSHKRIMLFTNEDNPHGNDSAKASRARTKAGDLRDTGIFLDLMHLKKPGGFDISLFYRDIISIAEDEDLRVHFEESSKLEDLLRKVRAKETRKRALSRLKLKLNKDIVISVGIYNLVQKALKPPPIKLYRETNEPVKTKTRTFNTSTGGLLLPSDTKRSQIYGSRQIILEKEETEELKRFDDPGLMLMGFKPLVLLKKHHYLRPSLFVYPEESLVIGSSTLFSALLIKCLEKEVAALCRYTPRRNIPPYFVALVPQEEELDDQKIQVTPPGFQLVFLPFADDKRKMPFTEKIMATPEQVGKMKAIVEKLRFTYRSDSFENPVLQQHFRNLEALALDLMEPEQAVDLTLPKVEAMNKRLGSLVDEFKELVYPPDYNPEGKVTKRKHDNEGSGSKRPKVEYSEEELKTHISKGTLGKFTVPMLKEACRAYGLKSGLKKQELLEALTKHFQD
# Sequence of DNA-PK (P13010 whole entry): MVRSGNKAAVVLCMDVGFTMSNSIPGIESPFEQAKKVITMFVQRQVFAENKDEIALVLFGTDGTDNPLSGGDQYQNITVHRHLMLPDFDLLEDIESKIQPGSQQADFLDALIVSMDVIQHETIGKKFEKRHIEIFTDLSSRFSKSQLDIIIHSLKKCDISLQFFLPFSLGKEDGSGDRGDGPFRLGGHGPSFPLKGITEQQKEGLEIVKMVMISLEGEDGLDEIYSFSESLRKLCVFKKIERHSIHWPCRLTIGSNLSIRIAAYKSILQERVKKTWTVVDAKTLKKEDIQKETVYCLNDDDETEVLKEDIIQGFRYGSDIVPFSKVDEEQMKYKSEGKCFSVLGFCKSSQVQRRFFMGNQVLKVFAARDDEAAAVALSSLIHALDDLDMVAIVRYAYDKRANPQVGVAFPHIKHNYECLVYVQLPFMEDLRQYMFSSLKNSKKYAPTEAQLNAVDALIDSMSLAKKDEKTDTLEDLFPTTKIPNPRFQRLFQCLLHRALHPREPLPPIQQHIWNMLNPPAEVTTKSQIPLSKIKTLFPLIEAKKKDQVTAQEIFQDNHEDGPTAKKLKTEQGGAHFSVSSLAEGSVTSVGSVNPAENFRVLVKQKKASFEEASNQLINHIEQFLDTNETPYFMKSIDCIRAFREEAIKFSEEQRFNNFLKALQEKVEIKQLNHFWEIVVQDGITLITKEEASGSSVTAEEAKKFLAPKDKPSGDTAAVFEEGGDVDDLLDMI
# Sequence of Ku70/80 (P12956 whole entry): as the sequence (P12956 whole entry) above
# Sequence of Ku70/80 (P13010 whole entry): as the sequence (P13010 whole entry) above
# Sequence of Ku70–Ku80 (P12956 whole entry): as the sequence (P12956 whole entry) above
# Sequence of Ku70–Ku80 (P13010 whole entry): as the sequence (P13010 whole entry) above
Structure (SMILES),IC50 (Ku70/80),IC50 (DNA-PK),also measured
"COc1cccc(NC(=O)c2cc(-c3ccc(CC4C(=O)N(c5cccc(C(=O)O)c5)N=C4C)o3)ccc2Cl)c1 (stereo not shown) [53 (149), 3-(4-((5-(4-chloro-3-((3-methoxyphenyl)carbamoyl)phenyl)furan-2-yl)methyl)-3-methyl-5-oxo-4,5-dihydro-1H-pyrazol-1-yl)benzoic acid]",–,–,shift in thermal stability (qualitative) (Ku70–Ku80): concentration-dependent induction of a shift in thermal stability
"COc1cccc(NC(=O)c2cc(-c3ccc(CC4C(=O)N(c5cccc(-c6nnn[nH]6)c5)N=C4C)o3)ccc2Cl)c1 (stereo not shown) [Compound 76 (245), 5-(5-((1-(3-(1H-tetrazol-5-yl)phenyl)-3-methyl-5-oxo-4,5-dihydro-1H-pyrazol-4-yl)methyl)furan-2-yl)-2-chloro-N-(3-methoxyphenyl)benzamide]",–,–,direct interaction with Ku70/80 protein (Ku70/80 protein): directly interacts with the Ku70/80 protein; potentiation of cellular effects of bleomycin and IR (p53 phosphorylation): potentiates the cellular effects of bleomycin and IR; effect in CRISPR gene-editing model (NHEJ): inhibiting NHEJ and activating homologous recombination to increase the efficiency of gene insertion

# Second part, led by results:
IC50 (Ku70/80),IC50 (DNA-PK),Structure (SMILES),also measured
7.18 ± 2.24 µM,1.72 ± 0.18 µM,"COc1cccc(NC(=O)c2cc(-c3ccc(/C=C4\C(=O)N(c5cccc(C(=O)O)c5)N=C4C)s3)ccc2Cl)c1 [Compound 40, (Z)-3-(4-((5-(4-Chloro-3-((3-methoxyphenyl)carbamoyl)phenyl)thiophen-2-yl)methylene)-3-methyl-5-oxo-4,5-dihydro-1H-pyrazol-1-yl)benzoic acid]",–
9.15 ± 0.68 µM,0.25 µM,"O=C(O)c1cccc(N2N=C(C(F)(F)F)/C(=C/c3ccc(-c4ccc(Cl)c(C(=O)NCc5ccc(F)cc5)c4)o3)C2=O)c1 [Compound 52, (Z)-3-(4-((5-(4-Chloro-3-((4-fluorobenzyl)carbamoyl)phenyl)furan-2-yl)methylene)-5-oxo-3-(trifluoromethyl)-4,5-dihydro-1H-pyrazol-1-yl)benzoic acid]",–
9.97 ± 0.4 µM,1.12 ± 0.17 µM,"COc1ccc(NC(=O)c2cc(-c3ccc(CC4C(=O)N(c5cccc(C(=O)O)c5)N=C4C)o3)ccc2Cl)cc1OC (stereo not shown) [Compound 54, 3-(4-((5-(4-Chloro-3-((3,4-dimethoxyphenyl)carbamoyl)phenyl)furan-2-yl)methyl)-3-methyl-5-oxo-4,5-dihydro-1H-pyrazol-1-yl)benzoic acid]",–
